Experimental data from the supplement of paper PMC13380429.

Legend:
Calu-3 [1] = experiment: drug sensitivity score (DSS) for viability; higher = more toxic; extreme values may be limits of the assay; details: 72 h
U2OS [2] = experiment: as above; details: 72 h
Caco-2 [3] = experiment: as above; details: 72 h
HepG2 [4] = experiment: as above; details: 72 h
Vero E6 [5] = experiment: as above; details: 72 h
U2OS [6] = experiment: relative viability EC50 (midpoint between 100% and the lowest measured viability); higher = less toxic; details: 72 h
HepG2 [7] = experiment: as above; details: 72 h
Vero E6 [8] = experiment: as above; details: 72 h
Calu-3 [9] = experiment: cell viability relative to DMSO; higher = less toxic; details: 72 h
U2OS [10] = experiment: as above; details: 72 h
Caco-2 [11] = experiment: as above; details: 72 h
HepG2 [12] = experiment: as above; details: 72 h
Vero E6 [13] = experiment: as above; details: 72 h
[14] = tested on: A549-ACE2 infected with SARS-CoV-2; experiment: SARS-CoV-2 infection rate relative to DMSO; higher = more infection; details: 24 h
A549-ACE2 [15] = experiment: drug-induced phospholipidosis relative to tamoxifen; higher = more phospholipidosis
[16] = tested on: A549-ACE2 infected with SARS-CoV-2; experiment: cell count relative to DMSO; higher = less toxic; details: 24 h
[17] = tested on: A549-ACE2 infected with SARS-CoV-2; experiment: morphology score (similarity to uninfected cells); higher = more like uninfected cells; details: 24 h
Calu-3 [18] = experiment: relative viability EC50 (midpoint between 100% and the lowest measured viability); higher = less toxic; details: 72 h
Caco-2 [19] = experiment: as above; details: 72 h
A549-ACE2 [20] = experiment: phospholipidosis EC50; higher = less potent phospholipidosis inducer

COc1c(C)c2c(c(O)c1C/C=C(\C)CCC(=O)OCCN1CCOCC1)C(=O)OC2 [mycophenolate-mofetil]
Details	drug sensitivity score	relative viability EC50 [nM]
Caco-2 [3]	5.6	–
Calu-3 [1]	4.2	–
HepG2 [4]	8.6	–
HepG2 [7]	–	938
U2OS [2]	7.2	–
U2OS [6]	–	1440
Vero E6 [5]	7.3	–
Vero E6 [8]	–	1250

Details	SARS-CoV-2 infection rate, [14] [%]	cell count, [16] [%]	cell viability, Caco-2 [11] [%]	cell viability, Calu-3 [9] [%]	cell viability, HepG2 [12] [%]	cell viability, U2OS [10] [%]	cell viability, Vero E6 [13] [%]	morphology score, [17]
1 nM	–	–	94.2	89.2	103	96.5	99	–
10 nM	–	–	101	102	101	97.9	98.4	–
100 nM	–	–	106	94.4	112	87.8	99.1	–
0.3 µM	97	102	–	–	–	–	–	0.22
1000 nM	–	–	76	85.1	61.6	73.5	75.1	–
3 µM	78	80	–	–	–	–	–	0.12
10000 nM	–	–	51.3	53.1	29.2	22.8	31.3	–
10 µM	81	94	–	–	–	–	–	0.22
30 µM	65	92	–	–	–	–	–	0.37

drug-induced phospholipidosis [%], A549-ACE2 [15]
Details	0.3 µM	0.833333 µM	3.33333 µM	6.66667 µM	10 µM	30 µM
24 h	-1.99	-10.6	-14.8	-15.8	-12.1	-11.3
48 h	0.05	-8.58	–	–	–	–
72 h	1.31	-1.93	–	–	–	–

[O-][n+]1ccccc1[S-].[O-][n+]1ccccc1[S-].[Zn+2] [pyrithione-zinc]
Details	drug sensitivity score	relative viability EC50 [nM]
Caco-2 [3]	19.5	–
Caco-2 [19]	–	137
Calu-3 [1]	12	–
Calu-3 [18]	–	527
HepG2 [4]	14.1	–
HepG2 [7]	–	640
U2OS [2]	16.4	–
U2OS [6]	–	406
Vero E6 [5]	12.8	–
Vero E6 [8]	–	748

Details	SARS-CoV-2 infection rate, [14] [%]	cell count, [16] [%]	cell viability, Caco-2 [11] [%]	cell viability, Calu-3 [9] [%]	cell viability, HepG2 [12] [%]	cell viability, U2OS [10] [%]	cell viability, Vero E6 [13] [%]	morphology score, [17]
1 nM	–	–	91.4	102	97	102	98.8	–
10 nM	–	–	94.5	94.8	111	95.1	93.6	–
100 nM	–	–	69.8	94.6	102	97	94.4	–
0.3 µM	95	99	–	–	–	–	–	0.13
1000 nM	–	–	13.4	40.6	24.6	10.8	40	–
3 µM	76	4	–	–	–	–	–	0.14
10000 nM	–	–	22.9	18.8	-0.1	1.3	0.1	–

drug-induced phospholipidosis [%], A549-ACE2 [15]
Details	24 h	48 h	72 h
0.3 µM	-3.98	-0.06	2.15
0.833333 µM	2.2	–	–

Nc1nccc(Oc2ccc(NC(=O)c3c[nH]cc(-c4ccc(F)cc4)c3=O)cc2F)c1Cl [metatinib]
Details	drug sensitivity score	relative viability EC50 [nM]
Caco-2 [3]	0.4	–
Caco-2 [19]	–	> 10000
Calu-3 [1]	0	–
Calu-3 [18]	–	> 10000
HepG2 [4]	5.7	–
HepG2 [7]	–	1610
U2OS [2]	0	–
U2OS [6]	–	> 10000

Details	SARS-CoV-2 infection rate, [14] [%]	cell count, [16] [%]	cell viability, Caco-2 [11] [%]	cell viability, Calu-3 [9] [%]	cell viability, HepG2 [12] [%]	cell viability, U2OS [10] [%]	morphology score, [17]
1 nM	–	–	100	91.4	104	96.2	–
10 nM	–	–	104	96.5	106	102	–
100 nM	–	–	92.6	95.5	101	100	–
0.3 µM	101	95	–	–	–	–	-0.24
1000 nM	–	–	104	95.3	85.6	99.2	–
3 µM	91	102	–	–	–	–	-0.08
10000 nM	–	–	80	96.3	37.7	94.9	–
10 µM	97	106	–	–	–	–	0.16
30 µM	60	60	–	–	–	–	0.34

drug-induced phospholipidosis [%], A549-ACE2 [15]
Details	0.3 µM	0.833333 µM	3.33333 µM	6.66667 µM	10 µM	30 µM
24 h	2.65	1.25	4.8	18.8	23.4	32.3
48 h	4.96	-2.22	-0.29	7.93	12.6	20.2
72 h	2.59	-0.924	2.59	8.07	10.8	22.5

CCCCN1[C@@H]2CC[C@H]1C[C@@H](OC(c1ccc(F)cc1)c1ccc(F)cc1)C2 [JHW-007]
Details	SARS-CoV-2 infection rate [%]	cell count [%]	cell viability [%]	morphology score	phospholipidosis EC50 [nM]
A549-ACE2 [20], 24 h	–	–	–	–	1590
A549-ACE2 [20], 48 h	–	–	–	–	3060
A549-ACE2 [20], 72 h	–	–	–	–	3560
Caco-2 [11], 1 nM	–	–	98.9	–	–
Caco-2 [11], 10 nM	–	–	98.3	–	–
Caco-2 [11], 100 nM	–	–	102	–	–
Caco-2 [11], 1000 nM	–	–	76	–	–
Caco-2 [11], 10000 nM	–	–	61.2	–	–
Calu-3 [9], 1 nM	–	–	96.8	–	–
Calu-3 [9], 10 nM	–	–	96.8	–	–
Calu-3 [9], 100 nM	–	–	98.4	–	–
Calu-3 [9], 1000 nM	–	–	96.6	–	–
Calu-3 [9], 10000 nM	–	–	28	–	–
HepG2 [12], 1 nM	–	–	96.6	–	–
HepG2 [12], 10 nM	–	–	95.1	–	–
HepG2 [12], 100 nM	–	–	96	–	–
HepG2 [12], 1000 nM	–	–	103	–	–
HepG2 [12], 10000 nM	–	–	36.1	–	–
U2OS [10], 1 nM	–	–	102	–	–
U2OS [10], 10 nM	–	–	97.9	–	–
U2OS [10], 100 nM	–	–	99.9	–	–
U2OS [10], 1000 nM	–	–	91.9	–	–
U2OS [10], 10000 nM	–	–	70.6	–	–
Vero E6 [13], 1 nM	–	–	102	–	–
Vero E6 [13], 10 nM	–	–	104	–	–
Vero E6 [13], 100 nM	–	–	100	–	–
Vero E6 [13], 1000 nM	–	–	99.3	–	–
Vero E6 [13], 10000 nM	–	–	61.8	–	–
[14], 0.1 µM	103	–	–	–	–
[14], 0.3 µM	85	–	–	–	–
[14], 1 µM	58	–	–	–	–
[14], 3 µM	20	–	–	–	–
[16], 0.1 µM	–	102	–	–	–
[16], 0.3 µM	–	106	–	–	–
[16], 1 µM	–	114	–	–	–
[16], 3 µM	–	116	–	–	–
[17], 0.1 µM	–	–	–	0.03	–
[17], 0.3 µM	–	–	–	0.4	–
[17], 1 µM	–	–	–	0.72	–
[17], 3 µM	–	–	–	0.93	–

Details	drug sensitivity score	relative viability EC50 [nM]
Caco-2 [3]	4.8	–
Calu-3 [1]	4.5	–
Calu-3 [18]	–	2800
HepG2 [4]	3.2	–
HepG2 [7]	–	3440
U2OS [2]	2.4	–
Vero E6 [5]	1.9	–

drug-induced phospholipidosis [%], A549-ACE2 [15]
Details	0.3 µM	0.833333 µM	3.33333 µM	6.66667 µM	10 µM
24 h	6	18.5	80.2	92.2	90
48 h	6.06	12.4	63.9	99	103
72 h	9.39	14.6	61.5	99.8	110
